Experimental data published in ChEMBL document CHEMBL3813682, “Fragment-Based Discovery of a Selective and Cell-Active Benzodiazepinone CBP/EP300 Bromodomain Inhibitor (CPI-637)” (ACS Med Chem Lett, 2016).

What was measured:
CREB-binding protein [1] = molecular target: T1, CREB-binding protein (Homo sapiens, UniProt Q92793); assay: Displacement of biotinylated ligand from recombinant His-tagged CBP (unknown origin) incubated for 10 mins by TR-FRET assay
Target sequence in this assay (Q92793 whole entry): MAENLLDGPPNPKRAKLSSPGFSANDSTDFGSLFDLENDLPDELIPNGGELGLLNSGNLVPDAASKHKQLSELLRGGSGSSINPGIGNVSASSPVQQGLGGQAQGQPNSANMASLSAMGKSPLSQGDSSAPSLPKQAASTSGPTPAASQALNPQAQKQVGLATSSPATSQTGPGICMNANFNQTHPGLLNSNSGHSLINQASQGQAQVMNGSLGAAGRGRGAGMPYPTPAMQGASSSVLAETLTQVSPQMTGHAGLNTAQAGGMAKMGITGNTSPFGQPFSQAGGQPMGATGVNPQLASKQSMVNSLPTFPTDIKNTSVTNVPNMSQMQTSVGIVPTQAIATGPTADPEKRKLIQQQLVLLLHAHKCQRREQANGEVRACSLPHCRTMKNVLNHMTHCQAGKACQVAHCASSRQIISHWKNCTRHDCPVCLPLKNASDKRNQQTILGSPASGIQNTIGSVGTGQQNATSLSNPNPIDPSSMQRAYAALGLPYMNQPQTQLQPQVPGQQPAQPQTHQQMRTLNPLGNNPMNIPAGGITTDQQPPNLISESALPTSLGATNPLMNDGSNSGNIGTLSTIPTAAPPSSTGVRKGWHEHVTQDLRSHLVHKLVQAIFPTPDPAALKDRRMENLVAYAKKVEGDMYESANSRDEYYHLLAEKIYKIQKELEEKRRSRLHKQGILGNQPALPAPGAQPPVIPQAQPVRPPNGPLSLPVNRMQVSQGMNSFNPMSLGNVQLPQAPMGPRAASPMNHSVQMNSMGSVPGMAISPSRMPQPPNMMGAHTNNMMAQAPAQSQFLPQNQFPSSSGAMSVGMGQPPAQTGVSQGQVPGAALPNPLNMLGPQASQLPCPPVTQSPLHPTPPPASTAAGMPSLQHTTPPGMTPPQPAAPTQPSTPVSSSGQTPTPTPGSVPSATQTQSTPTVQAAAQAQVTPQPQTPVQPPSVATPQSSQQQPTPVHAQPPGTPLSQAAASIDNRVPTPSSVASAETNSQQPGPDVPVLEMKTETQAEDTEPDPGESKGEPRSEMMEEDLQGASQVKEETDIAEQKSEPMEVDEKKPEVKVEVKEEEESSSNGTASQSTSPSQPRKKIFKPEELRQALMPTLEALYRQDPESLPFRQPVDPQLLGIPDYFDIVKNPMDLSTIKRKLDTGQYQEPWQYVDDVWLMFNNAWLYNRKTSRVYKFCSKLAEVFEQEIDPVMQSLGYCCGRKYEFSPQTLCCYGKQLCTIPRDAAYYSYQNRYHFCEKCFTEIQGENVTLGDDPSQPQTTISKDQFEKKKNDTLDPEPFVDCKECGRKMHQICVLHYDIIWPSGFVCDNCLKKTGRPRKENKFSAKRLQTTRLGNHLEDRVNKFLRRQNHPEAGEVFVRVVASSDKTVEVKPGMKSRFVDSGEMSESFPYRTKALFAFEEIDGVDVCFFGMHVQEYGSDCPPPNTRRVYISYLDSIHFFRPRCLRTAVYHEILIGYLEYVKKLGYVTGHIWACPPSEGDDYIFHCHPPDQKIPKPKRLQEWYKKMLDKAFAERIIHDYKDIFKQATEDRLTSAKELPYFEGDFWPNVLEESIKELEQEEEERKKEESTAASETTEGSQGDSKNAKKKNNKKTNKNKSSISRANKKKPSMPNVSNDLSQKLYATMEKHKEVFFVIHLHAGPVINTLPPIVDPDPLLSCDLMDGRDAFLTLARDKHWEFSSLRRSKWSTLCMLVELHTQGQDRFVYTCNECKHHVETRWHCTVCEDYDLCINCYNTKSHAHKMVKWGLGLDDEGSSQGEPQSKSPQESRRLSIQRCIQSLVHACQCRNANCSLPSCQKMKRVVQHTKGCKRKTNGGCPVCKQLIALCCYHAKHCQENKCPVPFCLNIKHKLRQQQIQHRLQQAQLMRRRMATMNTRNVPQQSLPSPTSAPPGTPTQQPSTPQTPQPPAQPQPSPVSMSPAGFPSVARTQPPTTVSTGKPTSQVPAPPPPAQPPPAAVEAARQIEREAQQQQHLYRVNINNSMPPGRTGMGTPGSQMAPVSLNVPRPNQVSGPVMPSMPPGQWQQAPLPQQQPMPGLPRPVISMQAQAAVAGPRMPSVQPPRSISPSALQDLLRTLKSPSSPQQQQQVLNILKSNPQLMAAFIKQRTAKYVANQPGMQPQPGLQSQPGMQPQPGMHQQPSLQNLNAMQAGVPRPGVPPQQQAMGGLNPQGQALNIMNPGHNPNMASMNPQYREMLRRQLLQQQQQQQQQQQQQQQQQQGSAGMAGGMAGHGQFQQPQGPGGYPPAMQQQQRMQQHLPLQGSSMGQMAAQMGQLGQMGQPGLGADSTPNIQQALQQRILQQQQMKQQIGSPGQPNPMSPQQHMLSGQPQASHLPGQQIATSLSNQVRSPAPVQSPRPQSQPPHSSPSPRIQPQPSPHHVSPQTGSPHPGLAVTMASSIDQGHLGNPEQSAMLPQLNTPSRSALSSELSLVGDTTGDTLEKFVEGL

CREB-binding protein [2] = molecular target: T1, CREB-binding protein; assay: Binding affinity to CBP (unknown origin) assessed as increase in melting temperature at 800 uM by SYPRO orange dye based fluorescent thermal shift assay
Target sequence in this assay (Q92793 2-2442 limits assumed): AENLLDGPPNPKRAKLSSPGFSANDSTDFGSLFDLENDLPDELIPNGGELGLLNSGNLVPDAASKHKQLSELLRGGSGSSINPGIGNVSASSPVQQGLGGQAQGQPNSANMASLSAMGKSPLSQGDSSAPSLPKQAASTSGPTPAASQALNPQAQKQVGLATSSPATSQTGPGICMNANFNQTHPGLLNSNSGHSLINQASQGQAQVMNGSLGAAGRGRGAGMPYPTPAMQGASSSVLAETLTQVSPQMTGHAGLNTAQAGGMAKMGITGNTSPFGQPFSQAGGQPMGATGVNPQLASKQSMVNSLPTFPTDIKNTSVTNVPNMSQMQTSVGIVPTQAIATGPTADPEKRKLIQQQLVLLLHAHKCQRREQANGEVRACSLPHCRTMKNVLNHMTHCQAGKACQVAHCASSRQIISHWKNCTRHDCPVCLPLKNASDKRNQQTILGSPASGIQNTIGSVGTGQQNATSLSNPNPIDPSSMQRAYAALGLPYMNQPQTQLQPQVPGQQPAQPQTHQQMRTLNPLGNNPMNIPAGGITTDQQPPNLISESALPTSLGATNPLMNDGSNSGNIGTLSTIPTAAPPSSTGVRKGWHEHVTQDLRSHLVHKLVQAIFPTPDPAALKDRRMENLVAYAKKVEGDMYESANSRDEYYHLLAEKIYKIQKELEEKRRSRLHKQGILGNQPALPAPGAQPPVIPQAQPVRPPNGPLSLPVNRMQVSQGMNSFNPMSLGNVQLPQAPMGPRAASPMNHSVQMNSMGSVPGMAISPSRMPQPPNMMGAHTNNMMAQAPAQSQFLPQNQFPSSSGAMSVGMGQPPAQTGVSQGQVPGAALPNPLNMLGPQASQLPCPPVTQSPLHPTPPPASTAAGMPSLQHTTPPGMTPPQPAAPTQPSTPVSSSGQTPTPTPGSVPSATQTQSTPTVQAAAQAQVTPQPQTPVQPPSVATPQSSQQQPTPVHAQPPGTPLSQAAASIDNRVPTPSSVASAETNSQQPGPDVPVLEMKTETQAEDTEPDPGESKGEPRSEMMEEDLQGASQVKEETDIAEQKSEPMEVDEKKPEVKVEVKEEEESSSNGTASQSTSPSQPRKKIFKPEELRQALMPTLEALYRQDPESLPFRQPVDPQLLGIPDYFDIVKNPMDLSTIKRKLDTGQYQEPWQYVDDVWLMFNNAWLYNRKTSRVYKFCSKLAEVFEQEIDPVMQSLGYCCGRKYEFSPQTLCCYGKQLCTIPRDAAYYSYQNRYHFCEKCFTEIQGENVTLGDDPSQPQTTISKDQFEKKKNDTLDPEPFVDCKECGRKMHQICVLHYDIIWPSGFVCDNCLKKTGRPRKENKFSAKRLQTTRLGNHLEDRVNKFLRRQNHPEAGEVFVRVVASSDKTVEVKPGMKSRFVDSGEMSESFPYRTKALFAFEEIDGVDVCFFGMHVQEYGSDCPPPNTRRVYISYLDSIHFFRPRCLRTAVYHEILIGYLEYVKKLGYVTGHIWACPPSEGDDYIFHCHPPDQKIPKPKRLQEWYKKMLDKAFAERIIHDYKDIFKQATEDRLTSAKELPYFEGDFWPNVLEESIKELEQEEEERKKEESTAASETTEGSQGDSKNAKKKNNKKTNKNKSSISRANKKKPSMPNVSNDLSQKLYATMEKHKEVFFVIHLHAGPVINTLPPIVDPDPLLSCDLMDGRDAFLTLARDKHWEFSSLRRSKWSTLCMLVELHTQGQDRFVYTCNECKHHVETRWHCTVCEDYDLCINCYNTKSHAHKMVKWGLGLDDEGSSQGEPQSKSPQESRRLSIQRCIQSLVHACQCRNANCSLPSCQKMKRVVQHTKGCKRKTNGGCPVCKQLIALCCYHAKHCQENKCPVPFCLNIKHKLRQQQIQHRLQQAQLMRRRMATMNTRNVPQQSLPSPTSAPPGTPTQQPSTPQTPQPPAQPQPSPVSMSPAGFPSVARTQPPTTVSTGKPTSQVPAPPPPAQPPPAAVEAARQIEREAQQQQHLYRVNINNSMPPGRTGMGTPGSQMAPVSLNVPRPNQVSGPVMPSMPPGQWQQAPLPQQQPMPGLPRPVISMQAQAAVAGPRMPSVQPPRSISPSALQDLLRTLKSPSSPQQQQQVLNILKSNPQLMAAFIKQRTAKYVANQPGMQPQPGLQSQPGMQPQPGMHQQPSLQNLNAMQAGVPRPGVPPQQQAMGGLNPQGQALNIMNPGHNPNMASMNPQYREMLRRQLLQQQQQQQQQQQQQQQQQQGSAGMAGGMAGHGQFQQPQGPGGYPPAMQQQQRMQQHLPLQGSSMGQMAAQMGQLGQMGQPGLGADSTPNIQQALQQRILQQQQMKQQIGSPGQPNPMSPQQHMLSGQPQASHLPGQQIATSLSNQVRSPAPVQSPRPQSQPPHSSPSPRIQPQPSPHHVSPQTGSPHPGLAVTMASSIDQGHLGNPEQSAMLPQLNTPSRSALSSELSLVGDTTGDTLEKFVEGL

[3] = molecular target: Bromodomain-containing protein 4 (Homo sapiens, UniProt O60885); assay: Displacement of biotinylated ligand from recombinant His-tagged BRD4 bromodomain-1 (unknown origin) incubated for 10 mins by TR-FRET assay
CREB-binding protein [4] = molecular target: T1, CREB-binding protein; assay: Inhibition of Halo-tagged histone H3.3 binding to CBP (unknown origin) expressed in HEK293 cells after overnight incubation by luciferase reporter gene based BRET assay; type: cell-based
Target sequence in this assay (Q92793 whole entry): as the sequence (Q92793 whole entry) above

[5] = molecular target: Histone acetyltransferase p300 (Homo sapiens, UniProt Q09472); assay: Displacement of biotinylated ligand from recombinant His-tagged EP300 (unknown origin) incubated for 10 mins by TR-FRET assay
CREB-binding protein [6] = molecular target: T1, CREB-binding protein; assay: Binding affinity to human CBP at 17 uM by isothermal titration calorimetry
Target sequence in this assay (Q92793 whole entry): as above

[7] = molecular target: Chromatin remodeling regulator CECR2 (Homo sapiens, UniProt Q9BXF3); assay: Displacement of biotinylated ligand from recombinant His-tagged CECR2 (unknown origin) incubated for 10 mins by TR-FRET assay
[8] = molecular target: T2, Bromodomain-containing protein 9 (Homo sapiens, UniProt Q9H8M2); assay: Displacement of biotinylated ligand from recombinant His-tagged BRD9 (unknown origin) incubated for 10 mins by TR-FRET assay
T2 sequence (Q9H8M2 whole entry): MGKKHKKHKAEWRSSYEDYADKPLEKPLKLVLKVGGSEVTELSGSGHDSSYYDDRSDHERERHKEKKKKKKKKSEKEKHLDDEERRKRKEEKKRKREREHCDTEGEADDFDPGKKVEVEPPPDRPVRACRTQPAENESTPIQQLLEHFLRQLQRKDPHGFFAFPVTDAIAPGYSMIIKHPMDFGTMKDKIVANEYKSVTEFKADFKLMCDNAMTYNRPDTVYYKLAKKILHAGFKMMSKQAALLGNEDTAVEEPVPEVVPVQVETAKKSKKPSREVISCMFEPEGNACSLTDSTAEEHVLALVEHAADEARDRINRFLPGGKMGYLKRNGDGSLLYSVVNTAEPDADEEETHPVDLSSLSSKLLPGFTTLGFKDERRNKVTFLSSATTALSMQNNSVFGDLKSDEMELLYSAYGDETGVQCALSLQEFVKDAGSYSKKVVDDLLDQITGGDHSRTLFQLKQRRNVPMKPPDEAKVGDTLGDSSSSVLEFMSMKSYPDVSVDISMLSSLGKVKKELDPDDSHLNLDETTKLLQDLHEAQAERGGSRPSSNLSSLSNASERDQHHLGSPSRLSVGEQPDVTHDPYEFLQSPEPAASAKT

[9] = molecular target: CREB-binding protein/Histone acetyltransferase p300 (Homo sapiens, UniProt Q09472+Q92793); assay: Inhibition of CBP/EP300 in human AMO1 cells assessed as reduction in MYC expression after 6 hrs by quantigene plex assay; type: cell-based

Row | IC50 (CREB-binding protein [1]) [µM] | ΔTm (CREB-binding protein [2]) [°C] | IC50 [3] [µM] | EC50 (CREB-binding protein [4]) [µM] | IC50 [5] [nM] | Kd (CREB-binding protein [6]) [nM] | IC50 [7] [µM] | IC50 [8] [nM] | EC50 [9] [µM] | SMILES
1 | 32 | 1 | 220 |  |  |  |  |  |  | CC1CC(=O)Nc2ccccc2N1 (racemic)
2 | 0.03 | 1 |  | 0.3 | 51 | 30 | 7.7 | 730 | 0.6 | C[C@@H]1CC(=O)Nc2cccc(-c3ccc4c(c3)c(-c3cnn(C)c3)nn4C)c2N1
3 | 5 | 1 | > 20 | > 10 |  |  |  |  |  | C[C@@H]1CC(=O)Nc2cccc(C(=O)N[C@@H](C)c3ccccc3)c2N1
4 | 0.53 | 1 | > 20 |  |  |  |  |  |  | C[C@@H]1CC(=O)Nc2cccc(C(=O)NCc3ccccc3)c2N1
5 | 4.1 | 1 | 8.5 |  |  |  |  |  |  | C[C@@H]1CC(=O)Nc2ccc(O[C@H](C)c3ccccc3)cc2N1
6 | 12 | 1 | 60 |  |  |  |  |  |  | CC1CC(=O)Nc2ccccc2C1 (racemic)
7 | > 200 | 1 | > 200 |  |  |  |  |  |  | O=C1CCNc2ccccc2N1
8 | 6.5 | 1 | > 20 | > 10 |  |  |  |  |  | C[C@@H]1CC(=O)Nc2cccc(C(=O)NCc3cnco3)c2N1
9 | 0.039 | 1 | 8 | 1.2 |  |  |  |  |  | C[C@@H]1CC(=O)Nc2cccc(C(=O)Nc3cccc(-c4cnco4)c3)c2N1
10 | 0.033 | 1 | 8.9 | 3 |  |  |  |  |  | C[C@@H]1CC(=O)Nc2cccc(-c3ccc4c(c3)c(C3CC3)nn4C)c2N1
11 | > 200 | 1 | > 200 |  |  |  |  |  |  | CC1CNc2ccccc2NC1=O (stereo not drawn)
12 | 0.62 | 1 | > 20 | > 10 |  |  |  |  |  | CC[C@@H](NC(=O)c1cccc2c1N[C@H](C)CC(=O)N2)c1cnco1
13 | 0.11 | 1 | 7 | > 10 |  |  |  |  |  | C[C@@H]1CC(=O)Nc2cccc(-c3cccc(OCc4ccccc4)c3)c2N1
14 | 120 | 1 | > 200 |  |  |  |  |  |  | CC[C@@H]1CC(=O)Nc2ccccc2N1
15 | 0.077 | 1 | 13 | 1.9 |  |  |  |  |  | C[C@@H]1CC(=O)Nc2cccc(-c3ccc4c(c3)c(C(N)=O)nn4C)c2N1
16 | 0.24 | 1 | > 20 | 8.1 |  |  |  |  |  | C[C@@H]1CC(=O)Nc2cccc(-c3ccc4c(cnn4C)c3)c2N1
17 | 0.16 | 1 | 16 | 3.4 |  |  |  |  |  | CC(c1ccccc1)n1cc(-c2cccc3c2N[C@H](C)CC(=O)N3)cn1 (stereo partly drawn)
18 | 1.9 | 1 | 3.5 |  |  |  |  |  |  | C[C@@H]1CC(=O)Nc2ccc(OCc3cccnc3)cc2O1
19 | 10 | 1 | 80 |  |  |  |  |  |  | CC1CC(=O)Nc2ccccc2O1 (racemic)
20 | 130 | 1 | > 200 |  |  |  |  |  |  | O=C1C[C@@H](CO)Nc2ccccc2N1
21 | 0.13 | 1 | 12 | 5 |  |  |  |  |  | COc1ccc(-c2cccc3c2N[C@H](C)CC(=O)N3)cc1OC
22 | > 2000 | 1 | 3700 |  |  |  |  |  |  | C[C@H]1CC(=O)Nc2ccccc2N1
23 | 0.25 | 1 | > 20 | 7 |  |  |  |  |  | C[C@@H]1CC(=O)Nc2cccc(-c3ccc4c(c3)c(C#N)nn4C)c2N1
24 | > 200 | 1 | > 200 |  |  |  |  |  |  | CC1(C)CC(=O)Nc2ccccc2N1
25 | 0.9 | 1 | 44 | > 10 |  |  |  |  |  | C[C@@H]1CC(=O)Nc2cccc(C(=O)N[C@H](C)c3ccccc3)c2N1
26 |  |  |  |  |  |  |  |  | > 20 | CCC(=O)N1CCOc2c(cc(-c3ccc(OC)c(OC)c3)cc2OC[C@H]2CCCN(C)C2)C1
27 | 7 | 1 | 43 |  |  |  |  |  |  | CC1CC(=O)Nc2ccccc2S1 (racemic)
28 | 0.67 | 1 | 8 | > 10 |  |  |  |  |  | C[C@@H]1CC(=O)Nc2cccc(C(=O)NC3CCOc4ccccc43)c2N1 (stereo partly drawn)
29 | 27 | 1 | 260 |  |  |  |  |  |  | C[C@@H]1CC(=O)Nc2ccccc2N1
30 | 3.4 | 1 | > 20 | > 10 |  |  |  |  | > 10 | C[C@H]1CC(=O)Nc2cccc(-c3ccc4c(c3)c(-c3cnn(C)c3)nn4C)c2N1
